Laboratory results: ChEMBL document CHEMBL4433239, “Synthesis of N'-propylhydrazide analogs of hydroxamic inhibitors of histone deacetylases (HDACs) and evaluation of their impact on activities of HDACs and replication of hepatitis C virus (HCV)” (Bioorg Med Chem Lett, 2019)
Activity calls are given as the source filed them. The calls are words filed in the database; no cut-off is given here.

Columns and labels:
[1] = Cytotoxicity against human HuH7 cells assessed as reduction in cell viability incubated for 3 days by MTT assay; format: cell-based, Huh-7
Hepatitis C virus = experiment: Antiviral activity against HCV infected in human HuH7-luc/neo cells assessed as inhibition of DNA replication incubated for 3 days by luciferase reporter gene assay; format: functional, organism-based, Hepacivirus hominis; conditions: 72 h
[2] = Therapeutic index, ratio of CC50 for human HuH7 cells to EC50 for antiviral activity against HCV infected in human HuH7-luc/neo cells assessed as inhibition of DNA replication i
[3] = target: Histone deacetylase 3 (Homo sapiens) (UniProt O15379); experiment: Inhibition of HDAC3 in human Huh7-luc/neo cells assessed as increase in histone H3 K9 acetylation incubated for 24 hrs by Western blot analysis
Chain of Histone deacetylase 3 (Homo sapiens) (O15379 whole entry): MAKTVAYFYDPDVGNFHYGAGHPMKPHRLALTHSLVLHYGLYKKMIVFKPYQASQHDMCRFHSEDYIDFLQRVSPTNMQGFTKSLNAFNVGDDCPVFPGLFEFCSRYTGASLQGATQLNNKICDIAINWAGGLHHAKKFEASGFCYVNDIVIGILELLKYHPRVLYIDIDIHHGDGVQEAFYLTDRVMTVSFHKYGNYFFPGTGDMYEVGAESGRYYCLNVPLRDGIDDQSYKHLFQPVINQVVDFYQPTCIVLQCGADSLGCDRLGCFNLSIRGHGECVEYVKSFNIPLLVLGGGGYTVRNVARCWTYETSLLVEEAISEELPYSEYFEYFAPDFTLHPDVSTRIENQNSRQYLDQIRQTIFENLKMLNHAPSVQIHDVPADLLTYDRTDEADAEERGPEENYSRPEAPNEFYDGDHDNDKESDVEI

[4] = target: T1, Protein deacetylase HDAC6 (Homo sapiens, UniProt Q9UBN7); experiment: Inhibition of human recombinant HDAC 6 by HDAC-Glo luminescent assay
T1 sequence (Q9UBN7 whole entry): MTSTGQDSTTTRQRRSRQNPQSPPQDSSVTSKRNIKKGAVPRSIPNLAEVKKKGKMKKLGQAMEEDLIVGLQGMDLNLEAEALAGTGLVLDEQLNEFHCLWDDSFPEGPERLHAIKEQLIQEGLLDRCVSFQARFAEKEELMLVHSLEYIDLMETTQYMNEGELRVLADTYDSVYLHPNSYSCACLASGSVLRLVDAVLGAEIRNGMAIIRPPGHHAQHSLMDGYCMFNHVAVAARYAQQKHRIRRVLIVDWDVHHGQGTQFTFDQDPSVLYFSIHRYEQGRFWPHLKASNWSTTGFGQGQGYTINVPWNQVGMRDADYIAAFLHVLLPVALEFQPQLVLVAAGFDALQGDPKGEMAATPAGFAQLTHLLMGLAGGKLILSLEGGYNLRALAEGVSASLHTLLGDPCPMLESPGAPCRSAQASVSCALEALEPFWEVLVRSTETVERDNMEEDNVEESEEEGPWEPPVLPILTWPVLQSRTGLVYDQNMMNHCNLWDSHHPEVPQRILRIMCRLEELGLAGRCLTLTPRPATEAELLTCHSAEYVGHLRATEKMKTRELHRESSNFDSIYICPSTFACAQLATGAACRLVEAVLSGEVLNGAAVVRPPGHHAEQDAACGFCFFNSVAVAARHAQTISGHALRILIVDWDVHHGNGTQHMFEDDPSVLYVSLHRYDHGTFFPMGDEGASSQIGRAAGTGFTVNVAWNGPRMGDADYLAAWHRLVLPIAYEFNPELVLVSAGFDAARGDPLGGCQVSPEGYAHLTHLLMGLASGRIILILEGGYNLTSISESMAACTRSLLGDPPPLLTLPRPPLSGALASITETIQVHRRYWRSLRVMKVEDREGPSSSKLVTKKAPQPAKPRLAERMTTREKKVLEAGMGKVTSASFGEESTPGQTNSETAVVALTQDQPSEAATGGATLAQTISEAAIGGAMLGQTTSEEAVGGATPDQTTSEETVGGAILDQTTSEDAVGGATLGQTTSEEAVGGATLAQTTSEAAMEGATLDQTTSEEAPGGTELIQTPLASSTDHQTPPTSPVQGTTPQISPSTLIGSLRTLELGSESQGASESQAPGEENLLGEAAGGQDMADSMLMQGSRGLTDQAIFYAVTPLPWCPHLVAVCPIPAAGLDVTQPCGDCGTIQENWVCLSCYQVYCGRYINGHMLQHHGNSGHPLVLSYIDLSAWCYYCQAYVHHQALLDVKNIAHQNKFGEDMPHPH

[5] = HuH7 cells (CC50) and HCV-infected HuH7-luc/neo cells (EC50)

| SMILES | EC50 (Hepatitis C virus) | inhibition [3] | IC50 [4] | CC50 at 72 h [1] | selectivity ratio [2, 5] | selectivity ratio [2] |
| --- | --- | --- | --- | --- | --- | --- |
| CCNNC(=O)c1ccccc1 | – | – | – | > 1000 µM | – | – |
| O=C(CCc1ccccc1)NO | 5.2 µM | – | – | 110 µM | 21 | – |
| CCCNNC(=O)C1c2ccccc2Oc2ccccc21 | – | – | – | > 300 µM | – | – |
| CNNC(=O)c1ccccc1 | – | – | – | > 1000 µM | – | – |
| O=C(NCC1(c2nc(-c3ccccc3)cs2)CCOCC1)c1cccc(-c2noc(C(F)(F)F)n2)c1 | 4.5 µM | Active | – | 83 µM | – | 18 |
| N[C@H](Cc1ccc(Cl)cc1Cl)C(=O)N1Cc2ccccc2C1 | – | – | 30 µM | – | – | – |
| CCCNNC(=O)c1ccccc1 | 5.5 µM | – | – | 120 µM | 22 | – |
| CCCNNC(=O)/C=C/c1ccccc1 | 5.4 µM | – | – | 18 µM | 3.3 | – |
| O=C(CCCCCCC(=O)Nc1ccccc1)NO [VORINOSTAT] | – | – | – | 0.64 µM | – | – |

The remaining molecules from weak to strong by EC50 (Hepatitis C virus), led by results:

| EC50 (Hepatitis C virus) | inhibition [3] | IC50 [4] | SMILES | CC50 at 72 h [1] | selectivity ratio [2, 5] | selectivity ratio [2] |
| --- | --- | --- | --- | --- | --- | --- |
| 3.8 µM | – | – | CCCNNC(=O)CCc1ccccc1 | 96 µM | 25 | – |
| 2 µM | – | – | O=C(/C=C/c1ccccc1)NO | 20 µM | – | 10 |
| 1.5 µM | – | – | CCCNNC(=O)c1ccc(-c2ccccc2)cc1 | 5.9 µM | 3.9 | – |
| 1.3 µM | – | – | CCCNNC(=O)CCCCCCC(=O)Nc1ccccc1 | 7 µM | 5.4 | – |
| 0.75 µM | – | – | O=C(NO)C1c2ccccc2Oc2ccccc21 | 300 µM | 400 | – |
| 0.55 µM | – | – | CCCNNC(=O)/C=C/c1cccc(S(=O)(=O)Nc2ccccc2)c1 | 0.68 µM | 1.2 | – |
| 0.4 µM | – | – | O=C(NO)c1ccc(-c2ccccc2)cc1 | 30 µM | 75 | – |
| 0.27 µM | – | – | Cc1nc2ccccc2n1Cc1ccc(C(=O)NO)cc1 | 7.9 µM | 29 | – |
| 0.24 µM | – | – | CCCNNC(=O)c1ccc(Cn2c3c(c4ccccc42)CN(C)CC3)cc1 | 5.3 µM | 22 | – |
| 0.19 µM | – | – | O=C(/C=C/c1cccc(S(=O)(=O)Nc2ccccc2)c1)NO [BELINOSTAT] | 0.65 µM | – | – |
| 0.025 µM | – | – | CCCNNC(=O)c1ccc(Cn2c(C)nc3ccccc32)cc1 | 9.9 µM | 400 | – |
